This is an account of results in patent publication US4656142A, “Organometallic complexes of estrogens and their application to the determination of hormone receptors” (Centre National de la Recherche Scientifique, priority 1982, dated 1987).

In this assay the target is T1, estradiol receptor (Homo sapiens, UniProt P03372).
T1 construct: from tissue; host or cells: ewe uterine cytosol (inferred from the sister test)
The assay is described as follows: ability to compete with estradiol for the receptor (log/logit curves, Rao et al.); relative binding affinity. The settings on record: competition with estradiol, estradiol = 100. The text has this:
It must be point out that the further the RBA value (relative binding affinity) is from 100, the lower the competitiveness of the steroid tested.

Structures are written as SMILES.

T1 sequence (P03372 whole entry): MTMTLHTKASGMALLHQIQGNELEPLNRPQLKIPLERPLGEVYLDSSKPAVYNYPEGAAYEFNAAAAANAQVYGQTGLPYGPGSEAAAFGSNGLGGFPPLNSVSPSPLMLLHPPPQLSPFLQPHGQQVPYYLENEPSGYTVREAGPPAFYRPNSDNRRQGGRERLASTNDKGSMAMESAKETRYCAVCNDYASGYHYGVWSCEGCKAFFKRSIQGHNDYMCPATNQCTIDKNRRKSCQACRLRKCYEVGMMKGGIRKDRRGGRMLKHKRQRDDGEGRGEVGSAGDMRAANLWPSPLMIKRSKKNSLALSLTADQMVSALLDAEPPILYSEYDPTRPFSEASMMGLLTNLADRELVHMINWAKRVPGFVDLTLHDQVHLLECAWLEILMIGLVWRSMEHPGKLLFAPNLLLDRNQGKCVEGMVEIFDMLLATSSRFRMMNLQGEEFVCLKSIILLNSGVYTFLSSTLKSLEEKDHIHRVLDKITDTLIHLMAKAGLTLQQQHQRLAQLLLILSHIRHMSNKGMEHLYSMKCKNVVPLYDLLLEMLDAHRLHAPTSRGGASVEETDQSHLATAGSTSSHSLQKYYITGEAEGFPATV

With `CC(C)(C)[Si](C)(C)Oc1ccc2c(c1)CC[C@@H]1[C@@H]2CC[C@]2(C)[C@@H](O)CC[C@@H]12` [Compound 1, monosilylated β-estradiol], the “RBA (%) (relative binding affinity)” value is given as 11%.
